EC50 and Ki data for 40 compounds are collected here from PubChem BioAssay AID2021 (NMMLSC, 2009).

For the assay, the target named is Cell division control protein 42 homolog (Homo sapiens) (UniProt P60953). Nature of the assay: Cdc42 activated mutant GTP-binding inhibitors, SAR follow-up, biochemical, bead-based multiplex flow cytometry, additional SAR set (AID 2021). The following applies: fluorescent GTP binding; for Ki: measured here: Ki derived from EC50. For orientation: A flow cytometer gives signals particle by particle.

As a reminder, the EC50 is the concentration giving half of the maximal effect. By Ki is commonly meant the dissociation constant of the complex between target and ligand, obtained from inhibition or displacement.

Structures are written as SMILES. Calls of active or inactive are those of the source. How the calls were made is not given here. Where only a bound is given, the exact number is not on record here.

Chain of Cell division control protein 42 homolog (Homo sapiens) (P60953 whole entry, looked up): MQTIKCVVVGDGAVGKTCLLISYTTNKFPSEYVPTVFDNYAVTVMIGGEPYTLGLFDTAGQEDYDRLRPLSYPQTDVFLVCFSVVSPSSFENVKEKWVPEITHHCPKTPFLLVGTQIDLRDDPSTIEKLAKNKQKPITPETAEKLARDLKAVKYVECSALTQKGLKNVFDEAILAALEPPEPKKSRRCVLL

With `CC1=C(CC(=O)O)c2cc(F)ccc2/C1=C/c1ccc(S(C)=O)cc1` (stereo not given), the EC50 was > 30 µM (inactive). Consider `O=Nc1c(-c2c(O)[nH]c3ccc(Br)cc23)[nH]c2ccccc12`, for which the EC50 was > 30 µM (inactive). As for `O=C(C#Cc1ccccc1)c1ccc([N+](=O)[O-])cc1`, the EC50 is > 30 µM (inactive). As for `O=C(C#Cc1ccccc1)c1ccccc1[N+](=O)[O-]`, the EC50 was > 30 µM (inactive). On to `N#Cc1c(-c2ccc(Cl)cc2)c(C(=O)c2ccccc2)n(S(=O)(=O)c2ccc([N+](=O)[O-])cc2)c1N`, for which the EC50 entry was “inactive” and the inhibition constant Ki is 0.93 µM.

For `O=Nc1c(-c2c(O)[nH]c3c(Br)cccc23)[nH]c2ccccc12`, the EC50 result is “inactive” and the inhibition constant (Ki) turned out to be 8.52 µM. Take `O=C1N=c2ccccc2=C1c1[nH]c(=S)[nH]c1O`: the EC50 was > 30 µM (inactive). As to `O=C1C(c2c(O)[nH]c3c(Cl)cccc23)=Nc2ccccc21`, the EC50 is > 30 µM (inactive). On the same count and under the same terms, as for `CC(=O)Oc1ccccc1C(=O)O`, the figure is > 30 µM (inactive); as for `COc1ccc(S(=O)(=O)n2c(N)c(C#N)c(-c3ccccc3)c2C(=O)c2ccc(Br)cc2)cc1`, > 30 µM (inactive); as for `O=C(C#Cc1ccccc1)c1cccnc1`, > 30 µM (inactive). For the compound `N#Cc1ccc(C(=O)C#Cc2ccccc2)cc1`, the EC50 was > 30 µM (inactive). For `COc1cc(-c2c(C#N)c(N)n(S(=O)(=O)c3c(C(C)C)cc(C(C)C)cc3C(C)C)c2C(=O)c2ccccc2)cc(OC)c1OC`, the EC50 was > 30 µM (inactive).

Regarding `O=C1Nc2c(Br)cccc2/C1=C1/Cc2ccccc2C1=O`, the EC50 was > 30 µM (inactive). Take `CSc1ccc(/C=C2/C(C)=C(CC(=O)O)c3cc(F)ccc32)cc1`: the EC50 result was “inactive” and the Ki is 7.52 µM. Regarding `O=C1C(c2c(O)[nH]c3c(F)cccc23)=Nc2ccccc21`, the EC50 was > 30 µM (inactive). With `COc1ccc(C(=O)C#Cc2ccccc2)cc1`, the EC50 was > 30 µM (inactive). On to `O=Nc1c(-c2c(O)[nH]c3c(F)cccc23)[nH]c2ccccc12`, for which the EC50 is > 30 µM (inactive). On to `COc1ccc(S(=O)(=O)n2c(N)c(C#N)c(-c3cncc(Br)c3)c2C(=O)c2ccccc2)cc1`, for which the EC50 was 9.98 µM and the inhibition constant (Ki) was 1.54 µM. Turning to `O=C(C#Cc1ccccc1)c1ccc(OC(F)(F)F)cc1`, the EC50 is > 30 µM (inactive). Turning to `O=Nc1c(-c2c(O)[nH]c3ccccc23)[nH]c2ccccc12`, the EC50 was > 30 µM (inactive). As to `O=C(C#Cc1ccccc1)c1ccc(F)cc1`, the EC50 entry was “inactive” and the Ki was 9.15 µM. Turning to `O=C1C(c2c(O)[nH]c3ccc(Br)cc23)=Nc2ccccc21`, the EC50 was > 30 µM (inactive). As to `CCCCS(=O)(=O)n1c(N)c(C#N)c(-c2cc(OC)c(OC)c(OC)c2)c1C(=O)c1ccccc1`, the EC50 result is “inactive” and the Ki amounted to 2.88 µM. As to `COc1ccc(S(=O)(=O)n2c(N)c(C#N)c(-c3cc(Br)c(OC)c(OC)c3)c2C(=O)c2ccccc2)cc1`, the EC50 was > 30 µM (inactive). Same read-out and setting: for `O=C1C(c2c(O)[nH]c3ccccc23)=Nc2ccccc21` the value was > 30 µM (inactive); for `O=C(C#Cc1ccccc1)c1ccccc1`, > 30 µM (inactive); for `O=C1Nc2ccccc2/C1=C1/Cc2ccccc2C1=O`, > 30 µM (inactive).

For the compound `COc1ccc(-c2c(C#N)c(N)n(S(C)(=O)=O)c2C(=O)c2ccccc2)cc1Br`, the EC50 entry was “inactive” and the inhibition constant (Ki) was 2.87 µM.

As to `CC(C(=O)O)c1cccc(C(=O)c2ccccc2)c1` (stereo not given), the EC50 was > 30 µM (inactive). Regarding `COC(=O)c1ccc(C(=O)C#Cc2ccccc2)cc1`, the EC50 is > 30 µM (inactive). For the compound `O=[N+]([O-])c1ccc(C#Cc2ccccc2)cc1`, the EC50 was 13.7 µM and the inhibition constant Ki stood at 2.12 µM. As to `CC(C(=O)O)c1cccc(Oc2ccccc2)c1` (stereo not given), the EC50 was > 30 µM (inactive). Still for that read-out and setting: for `O=C(C#Cc1ccccc1)c1ccc(Cl)cc1` the value was > 30 µM (inactive). As to `CC(C)Cc1ccc([C@H](C)C(=O)O)cc1`, the EC50 entry was “inactive” and the Ki was determined as 0.99 µM. In the case of `O=C1C(c2c(O)[nH]c3c(Br)cccc23)=Nc2ccccc21`, the EC50 is > 30 µM (inactive).

In the case of `O=Nc1c(-c2c(O)[nH]c3c(Cl)cccc23)[nH]c2ccccc12`, the EC50 is > 30 µM (inactive). With `COc1ccc2cc(CC(=O)O)ccc2c1`, the EC50 is > 30 µM (inactive).

As for `O=C1N=c2ccccc2=C1c1[nH]c(=O)[nH]c1O`, the EC50 entry is “inactive” and the Ki was 0.81 µM. Regarding `O=C1Nc2cccc(Br)c2/C1=C1/Cc2ccccc2C1=O`, the EC50 was > 30 µM (inactive).
